For 16 compounds, EC50 results are on record in US9957267B2, “Somatostatin modulators and uses thereof” (Crinetics Pharmaceuticals, Inc., priority 2015, dated 2018).

The structures appear in SMILES notation. Where two headings read alike, the source gives them in different places.

What all share (type): cell-based
The target in assay [1] is T1, human somatostatin receptor subtype 2a (Homo sapiens, UniProt P30874).
T1 construct: expressed in transfected cells
Description: cAMP assay for SSTR2a agonists (HTRF cAMP kit, NKH-477 stimulated). The settings on record: CHO cells stably expressing human SSTR2a, 1.6 μM NKH-477. As for the experimental part: (§1) Chinese hamster ovary (CHO) cells stably expressing one of the six human or rodent somatostatin receptor subtypes are grown to 85-100% confluence on standard tissue culture dishes in F12-Ham's growth media (Hyclone) with following additives: 10% donor calf serum (Hyclone), 200 U/mL penicillin (Hyclone), 200 μg/mL streptomycin (Hyclone), 20 mM HEPES (Hyclone), 200 μg/mL hygromycin Hyclone.
(§2) General overview: All SSTR subtypes are Gi coupled G-protein coupled receptors (GPCRs) that lead to decreases in intracellular cyclic AMP (cAMP) when activated by an agonist. Therefore, measurement of intracellular cAMP levels can be used to assess whether compounds of the invention are agonists of SSTR subtypes (John Kelly, Troy Stevens, W. Joseph Thompson, and Roland Seifert, Current Protocols in Pharmacology, 2005, 2.2.1-2.2). One example of an intracellular cAMP assay is described below.
Four days prior to the assay, 5000 Chinese hamster ovary (CHO) cells stably expressing the human somatostatin receptor subtype 2a are plated in each well of a 96-well tissue culture plate (Nest Biotech Cell, flat bottom with low evaporation tissue culture treated; Polystyrene; Non-Pyrogenic) in F12-Ham's media (100 μL/well) supplemented with 200 μg/mL of hygromycin. Incubate at 37 C, 5% CO2, 95% humidity for four days. The cells should reach full confluence. On the day of the assay, various dilutions of the compounds of the invention are prepared in assay buffer (HRTF cAMP kit, Cisbio) in the presence of 1.6 μM NKH-477 (a water-soluble forskolin derivative) and 50 μL of the dilutions are added to the cultured cells and incubated for 20 minutes at 37° C. […] 50 μL of lysis buffer (HRTF cAMP kit, Cisbio) is added to each well and incubated at room temperature for 30 minutes, after which 150 μL assay buffer is added to each well. In a 384-well plate (Grenier, 784-080), 10 μL of assay mixture is added to 10 μL of developing mixture, containing cAMP detection and visualization antibodies are added and the assay is allowed incubate for 1-24 hours at room temperature. The intracellular cAMP concentrations are then measured using a commercially available detection kit (for example, the cAMP HTRF kit, Cisbio). The measured intracellular cAMP concentrations are plotted vs. the concentration of the compounds of the invention and the EC50 of the compounds are calculated using standard methods.
(Cyclic AMP is a second messenger, typically raised through Gs and lowered through Gi signalling.)

The target of the next assay is T2, SSTR4 (Homo sapiens, UniProt P31391).
T2 construct: expressed in transfected cells
Put plainly: cAMP functional agonist assay, CHO cells expressing SSTR4. As for the experimental part: as §1
(§3) General overview: All SSTR subtypes are Gi coupled G-protein coupled receptors (GPCRs) that lead to decreases in intracellular cyclic AMP (cAMP) when activated by an agonist. […] One example of an intracellular cAMP assay is described below.

The target in a further assay is T3, SSTR5 (Homo sapiens, UniProt P35346).
T3 construct: expressed in transfected cells
Put plainly: cAMP functional agonist assay, CHO cells expressing SSTR5. Particulars: CHO cells stably expressing SSTR5, cAMP. As for the experimental part:
as §1, §2

The target of another assay is SSTR3 (UniProt P32745). Put plainly: cAMP functional agonist assay, CHO cells expressing SSTR3. Particulars: CHO cells stably expressing SSTR3, cAMP. As to the method:
as §1, §2

A further assay has as its target T4, SSTR1 (Homo sapiens, UniProt P30872).
T4 construct: expressed in transfected cells
Put plainly: cAMP functional agonist assay, CHO cells expressing SSTR1. As to the method:
as §1, §3

[2] abbreviates: CHO cells stably expressing SSTR4, cAMP, read-out: SSTR4 EC50.

T3 sequence (P35346 whole entry): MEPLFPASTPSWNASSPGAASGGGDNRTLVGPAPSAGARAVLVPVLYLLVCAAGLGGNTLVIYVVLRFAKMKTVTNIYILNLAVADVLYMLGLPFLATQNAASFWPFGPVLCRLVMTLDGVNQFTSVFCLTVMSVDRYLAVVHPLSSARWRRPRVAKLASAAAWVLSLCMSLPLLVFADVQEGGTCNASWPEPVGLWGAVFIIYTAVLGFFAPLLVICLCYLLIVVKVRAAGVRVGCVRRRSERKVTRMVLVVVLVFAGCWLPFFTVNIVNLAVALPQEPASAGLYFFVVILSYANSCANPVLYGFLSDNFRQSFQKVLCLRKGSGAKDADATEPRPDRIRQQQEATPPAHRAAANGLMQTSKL
T1 sequence (P30874 whole entry): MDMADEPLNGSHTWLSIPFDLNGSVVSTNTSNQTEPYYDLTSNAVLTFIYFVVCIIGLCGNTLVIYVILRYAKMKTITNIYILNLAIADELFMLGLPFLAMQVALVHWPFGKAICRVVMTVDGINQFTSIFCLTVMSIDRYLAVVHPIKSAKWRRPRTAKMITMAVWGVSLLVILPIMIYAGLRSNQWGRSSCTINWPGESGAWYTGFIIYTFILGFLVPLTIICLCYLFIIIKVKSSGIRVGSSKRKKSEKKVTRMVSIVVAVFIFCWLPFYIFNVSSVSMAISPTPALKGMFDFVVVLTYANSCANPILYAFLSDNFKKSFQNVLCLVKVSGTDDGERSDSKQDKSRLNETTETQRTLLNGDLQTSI
SSTR3, sequence (P32745 whole entry): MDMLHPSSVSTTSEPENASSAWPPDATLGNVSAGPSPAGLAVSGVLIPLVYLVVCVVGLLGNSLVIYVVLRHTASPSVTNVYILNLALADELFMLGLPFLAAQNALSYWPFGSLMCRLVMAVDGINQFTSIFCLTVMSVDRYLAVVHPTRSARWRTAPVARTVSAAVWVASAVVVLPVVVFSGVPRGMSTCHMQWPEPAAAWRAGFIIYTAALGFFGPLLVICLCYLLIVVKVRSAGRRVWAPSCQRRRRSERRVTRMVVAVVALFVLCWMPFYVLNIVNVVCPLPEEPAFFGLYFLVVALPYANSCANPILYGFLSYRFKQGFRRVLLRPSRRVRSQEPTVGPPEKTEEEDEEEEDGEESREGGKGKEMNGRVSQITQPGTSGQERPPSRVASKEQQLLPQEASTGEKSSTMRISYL
T4 sequence (P30872 whole entry): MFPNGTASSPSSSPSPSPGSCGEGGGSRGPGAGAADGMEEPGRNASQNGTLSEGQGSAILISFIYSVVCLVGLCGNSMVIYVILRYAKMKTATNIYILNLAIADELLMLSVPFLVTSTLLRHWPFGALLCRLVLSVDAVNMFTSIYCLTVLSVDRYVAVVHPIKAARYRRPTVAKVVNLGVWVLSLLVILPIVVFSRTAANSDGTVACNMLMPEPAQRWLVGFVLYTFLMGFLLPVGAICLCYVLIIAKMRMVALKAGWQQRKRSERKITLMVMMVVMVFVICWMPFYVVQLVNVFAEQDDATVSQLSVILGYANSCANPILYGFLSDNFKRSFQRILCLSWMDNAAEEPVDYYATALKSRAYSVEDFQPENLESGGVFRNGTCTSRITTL
T2 sequence (P31391 whole entry): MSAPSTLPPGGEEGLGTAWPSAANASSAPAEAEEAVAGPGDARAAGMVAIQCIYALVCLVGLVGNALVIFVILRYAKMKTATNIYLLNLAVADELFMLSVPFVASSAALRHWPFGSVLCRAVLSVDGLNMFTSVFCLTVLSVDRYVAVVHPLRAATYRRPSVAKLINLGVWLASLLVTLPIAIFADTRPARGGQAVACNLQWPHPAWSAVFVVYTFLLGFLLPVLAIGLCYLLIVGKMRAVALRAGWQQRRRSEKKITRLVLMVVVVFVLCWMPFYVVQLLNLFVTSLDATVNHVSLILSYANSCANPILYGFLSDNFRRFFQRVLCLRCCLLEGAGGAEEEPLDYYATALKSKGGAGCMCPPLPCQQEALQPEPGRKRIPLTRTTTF

A word on the EC50: it is the concentration that produces a half-maximal response. As to `Cc1cc(C)cc(-c2cnc3ncn(-c4cccc(O)c4)c(=O)c3c2CN(C)CCNCc2ccccc2)c1` [Compound A-6, 5-({[2-(benzylamino)ethyl](methyl)amino}methyl)-6-(3,5-dimethylphenyl)-3-(3-hydroxyphenyl)-3H,4H-pyrido[2,3-d]pyrimidin-4-one], the concentration giving a half-maximal response (EC50) in assay [1] was 100 to 10000 nM; at SSTR4 (setting [2]), 100 to 10000 nM; at SSTR5, greater than 10000 nM.

As to `Cc1cc(Cl)cc(-c2cnc3ncn(-c4cccc(C(N)=O)c4)c(=O)c3c2CN(C)C[C@@H]2CCCN2)c1` [Compound A-31, 3-[6-(3-chloro-5-methylphenyl)-5-({methyl[(2S)-pyrrolidin-2-ylmethyl]amino}methyl)-4-oxo-3H,4H-pyrido[2,3-d]pyrimidin-3-yl]benzamide], the EC50 in assay [1] is less than 100 nM; on SSTR3, 100 to 10000 nM; on SSTR4 (setting [2]), less than 100 nM.

As to `Cc1cc(Cl)cc(-c2cnc3ncn(-c4cc(O)cc(OC(F)(F)F)c4)c(=O)c3c2CN(C)C[C@@H]2CCCN2)c1` [Compound A-52, 6-(3-chloro-5-methylphenyl)-3-[3-hydroxy-5-(trifluoromethoxy)phenyl]-5-({methyl[(2S)-pyrrolidin-2-ylmethyl]amino}methyl)-3H,4H-pyrido[2,3-d]pyrimidin-4-one], the concentration giving a half-maximal response (EC50) was less than 100 nM in assay [1], 100 to 10000 nM on SSTR3, less than 100 nM on SSTR4 (setting [2]) and greater than 10000 nM at SSTR5.

For the compound `CCN(CCN)Cc1c(-c2cc(C)cc(Cl)c2)cnc2nc(C)n(-c3cc(O)cc(F)c3)c(=O)c12` [Compound A-67, 5-{[(2-aminoethyl)(ethyl)amino]methyl}-6-(3-chloro-5-methylphenyl)-3-(3-fluoro-5-hydroxyphenyl)-2-methyl-3H,4H-pyrido[2,3-d]pyrimidin-4-one], the EC50 in assay [1] was less than 100 nM; on SSTR3, 100 to 10000 nM; at SSTR4 (setting [2]) it was less than 100 nM.

For the compound `COc1cccc(-c2cnc3ncn(-c4cccc(O)c4)c(=O)c3c2CN(C)CC2CCCCN2)c1` (stereo not shown) [Compound A-23, 3-(3-hydroxyphenyl)-6-(3-methoxyphenyl)-5-{[methyl(piperidin-2-ylmethyl)amino]methyl}-3H,4H-pyrido[2,3-d]pyrimidin-4-one], the EC50 (in assay [1]; on SSTR3; at SSTR4 (setting [2])) was less than 100 nM in each case.

Take `Cc1cc(C)cc(-c2cnc3ncn(-c4cccc(O)c4)c(=O)c3c2CN(C)CC2CCCCN2)c1` (stereo not shown) [Compound A-13, 6-(3,5-dimethylphenyl)-3-(3-hydroxyphenyl)-5-{[methyl(piperidin-2-ylmethyl)amino]methyl}-3H,4H-pyrido[2,3-d]pyrimidin-4-one]: the EC50 at SSTR1 was 100 to 10000 nM; at SSTR3, less than 100 nM; at SSTR4, less than 100 nM; at SSTR5, greater than 10000 nM.

Consider `Cc1cc(C)cc(-c2cnc3ncn(-c4cc(O)cc(F)c4)c(=O)c3c2CN(C)C[C@@H]2CCCN2)c1` [Compound A-45, 6-(3,5-dimethylphenyl)-3-(3-fluoro-5-hydroxyphenyl)-5-({methyl[(2S)-pyrrolidin-2-ylmethyl]amino}methyl)-3H,4H-pyrido[2,3-d]pyrimidin-4-one], for which the EC50 on SSTR1 was 100 to 10000 nM; on SSTR3, less than 100 nM; on SSTR4, less than 100 nM; at SSTR5, greater than 10000 nM.

As to `Cc1cc(C)cc(-c2cnc3ncn(-c4cccc(C(N)=O)c4)c(=O)c3c2CN(C)C[C@@H]2CCCN2)c1` [Compound A-39, 3-[6-(3,5-dimethylphenyl)-5-({methyl[(2S)-pyrrolidin-2-ylmethyl]amino}methyl)-4-oxo-3H,4H-pyrido[2,3-d]pyrimidin-3-yl]benzamide], the EC50 is greater than 10000 nM at SSTR1, 100 to 10000 nM at SSTR3, less than 100 nM at SSTR4 and greater than 10000 nM at SSTR5.

Regarding `CN(Cc1c(-c2cccc3ccccc23)cnc2ncn(-c3cccc(O)c3)c(=O)c12)CC1CCCCN1` (stereo not shown) [Compound A-69, 3-(3-hydroxy-phenyl)-5-[(methyl-piperidin-2-ylmethyl-amino)-methyl]-6-naphthalen-1-yl-3H-pyrido[2,3-d]pyrimidin-4-one], the EC50 (in assay [1]; at SSTR3; at SSTR4 (setting [2])) was less than 100 nM each time.

Turning to `CN(Cc1c(-c2cc(Cl)cc(CO)c2)cnc2ncn(-c3cccc(O)c3)c(=O)c12)C[C@@H]1CCCN1` [Compound A-38, 6-[3-chloro-5-(hydroxymethyl)phenyl]-3-(3-hydroxyphenyl)-5-({methyl[(2S)-pyrrolidin-2-ylmethyl]amino}methyl)-3H,4H-pyrido[2,3-d]pyrimidin-4-one], the EC50 at SSTR1 was 100 to 10000 nM; on SSTR3, less than 100 nM; on SSTR4, less than 100 nM; on SSTR5, 100 to 10000 nM.

`CC(C)c1cccc(-c2cnc3ncn(-c4cccc(O)c4)c(=O)c3c2CN(C)CC2CCCCN2)c1` (stereo not shown) [Compound A-22, 3-(3-hydroxyphenyl)-5-{[methyl(piperidin-2-ylmethyl)amino]methyl}-6-[3-(propan-2-yl)phenyl]-3H,4H-pyrido[2,3-d]pyrimidin-4-one]: the EC50 in assay [1] is 100 to 10000 nM; on SSTR4 (setting [2]) it was less than 100 nM.

For the compound `Cc1cc(C)cc(-c2cnc3ncn(-c4cc(F)cc(C#N)c4)c(=O)c3c2CN(C)C[C@@H]2CCCN2)c1` [Compound A-46, 3-[6-(3,5-dimethylphenyl)-5-({methyl[(2S)-pyrrolidin-2-ylmethyl]amino}methyl)-4-oxo-3H,4H-pyrido[2,3-d]pyrimidin-3-yl]-5-fluorobenzonitrile], the EC50 in assay [1] was 100 to 10000 nM; on SSTR3, 100 to 10000 nM; on SSTR4 (setting [2]), less than 100 nM.

Take `Cc1cc(C)cc(-c2cnc3ncn(-c4cc(C)cc(O)c4)c(=O)c3c2CN(C)C[C@@H]2CCCN2)c1` [Compound A-44, 6-(3,5-dimethylphenyl)-3-(3-hydroxy-5-methylphenyl)-5-({methyl[(2S)-pyrrolidin-2-ylmethyl]amino}methyl)-3H,4H-pyrido[2,3-d]pyrimidin-4-one]: the concentration giving a half-maximal response (EC50) on SSTR1 is 100 to 10000 nM; at SSTR3, less than 100 nM; on SSTR4, less than 100 nM; at SSTR5, greater than 10000 nM.

For `Cc1cc(F)cc(-c2cnc3ncn(-c4cccc(O)c4)c(=O)c3c2CN(C)C[C@@H]2CCCN2)c1` [Compound A-36, 6-(3-fluoro-5-methylphenyl)-3-(3-hydroxyphenyl)-5-({methyl[(2S)-pyrrolidin-2-ylmethyl]amino}methyl)-3H,4H-pyrido[2,3-d]pyrimidin-4-one], the EC50 at SSTR1 is 100 to 10000 nM; at SSTR3 it was 100 to 10000 nM; at SSTR4, less than 100 nM; on SSTR5 it was greater than 10000 nM.

Regarding `Cc1cc(Cl)cc(-c2cnc3ncn(-c4cc(O)cc(C#N)c4)c(=O)c3c2CN(C)C[C@@H]2CCCN2)c1` [Compound A-71, 6-(3-methyl-5-chlorophenyl)-3-(3-cyano-5-hydroxyphenyl)-5-({methyl[(2S)-pyrrolidin-2-ylmethyl]amino}methyl)-3H,4H-pyrido[2,3-d]pyrimidin-4-one], the concentration giving a half-maximal response (EC50) (in assay [1]; on SSTR3; at SSTR4 (setting [2])) was less than 100 nM throughout.

For the compound `CN(Cc1c(-c2cc(F)cc(Cl)c2)cnc2ncn(-c3cccc(O)c3)c(=O)c12)C[C@@H]1CCCN1` [Compound A-35, 6-(3-chloro-5-fluorophenyl)-3-(3-hydroxyphenyl)-5-({methyl[(2S)-pyrrolidin-2-ylmethyl]amino}methyl)-3H,4H-pyrido[2,3-d]pyrimidin-4-one], the EC50 on SSTR1 is 100 to 10000 nM; on SSTR3 it was less than 100 nM; on SSTR4 it was less than 100 nM; at SSTR5, 100 to 10000 nM.
